Measured values reported in patent publication US8754242B2, “Herbicides” (Syngenta Crop Protection LLC, priority 2007, dated 2014).

Experiments:
Type in all cases: in vivo
Lolium perenne (LOLPE) [1] = test: Test Example 1 post-emergence herbicidal activity; conditions: 360 h, rate 125 g/ha, evaluated 15 days later, read-out: Post-emergence activity LOLPE (100=total damage to plant; 0=no damage to plant)
In short: (§1)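 Greenhouse pot test; spray application pre-emergence (1 d after sowing) or post-emergence (10 d growth). Rating 0–100% damage; pre read at 20 d, post at 15 d.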

[2] = tested on: Digitaria sanguinalis (DIGSA); test: Test Example 1 post-emergence herbicidal activity; conditions: 360 h, rate 125 g/ha, evaluated 15 days later, read-out: Post-emergence activity DIGSA (100=total damage to plant; 0=no damage to plant)
In short: as §1

[3] = tested on: Alopecurus myosuroides (ALOMY); test: Test Example 1 post-emergence herbicidal activity; conditions: 360 h, rate 125 g/ha, evaluated 15 days later, read-out: Post-emergence activity ALOMY (100=total damage to plant; 0=no damage to plant)
In short: as §1

[4] = tested on: Echinochloa crus-galli (ECHCG); test: Test Example 1 post-emergence herbicidal activity; conditions: 360 h, rate 125 g/ha, evaluated 15 days later, read-out: Post-emergence activity ECHCG (100=total damage to plant; 0=no damage to plant)
In short: as §1

Avena fatua (AVEFA) [5] = test: Test Example 1 post-emergence herbicidal activity; conditions: 360 h, rate 125 g/ha, evaluated 15 days later, read-out: Post-emergence activity AVEFA (100=total damage to plant; 0=no damage to plant)
In short: as §1

Setaria faberi (SETFA) [6] = test: Test Example 1 post-emergence herbicidal activity; conditions: 360 h, rate 125 g/ha, evaluated 15 days later, read-out: Post-emergence activity SETFA (100=total damage to plant; 0=no damage to plant)
In short: as §1

Lolium perenne (LOLPE) [7] = test: Test Example 1 pre-emergence herbicidal activity; conditions: Lolium perenne, 480 h, rate 250 g/ha, evaluated 20 days later, read-out: Pre-emergence activity LOLPE (100=total damage to plant; 0=no damage to plant)
In short: as §1

[8] = tested on: Digitaria sanguinalis (DIGSA); test: Test Example 1 pre-emergence herbicidal activity; conditions: Digitaria sanguinalis, 480 h, rate 250 g/ha, evaluated 20 days later, read-out: Pre-emergence activity DIGSA (100=total damage to plant; 0=no damage to plant)
In short: as §1

[9] = tested on: Alopecurus myosuroides (ALOMY); test: Test Example 1 pre-emergence herbicidal activity; conditions: Alopecurus myosuroides, 480 h, rate 250 g/ha, evaluated 20 days later, read-out: Pre-emergence activity ALOMY (100=total damage to plant; 0=no damage to plant)
In short: as §1

[10] = tested on: Echinochloa crus-galli (ECHCG); test: Test Example 1 pre-emergence herbicidal activity; conditions: Echinochloa crus-galli, 480 h, rate 250 g/ha, evaluated 20 days later, read-out: Pre-emergence activity ECHCG (100=total damage to plant; 0=no damage to plant)
In short: as §1

Avena fatua (AVEFA) [11] = test: Test Example 1 pre-emergence herbicidal activity; conditions: Avena fatua, 480 h, rate 250 g/ha, evaluated 20 days later, read-out: Pre-emergence activity AVEFA (100=total damage to plant; 0=no damage to plant)
In short: as §1

Setaria faberi (SETFA) [12] = test: Test Example 1 pre-emergence herbicidal activity; conditions: Setaria faberi, 480 h, rate 250 g/ha, evaluated 20 days later, read-out: Pre-emergence activity SETFA (100=total damage to plant; 0=no damage to plant)
In short: as §1

Row | SMILES | pest or weed control at 125 g/ha (Lolium perenne (LOLPE) [1]) [%] | pest or weed control at 125 g/ha [2] [%] | pest or weed control at 125 g/ha [3] [%] | pest or weed control at 125 g/ha [4] [%] | pest or weed control at 125 g/ha (Avena fatua (AVEFA) [5]) [%] | pest or weed control at 125 g/ha (Setaria faberi (SETFA) [6]) [%] | pest or weed control at 250 g/ha (Lolium perenne (LOLPE) [7]) [%] | pest or weed control at 250 g/ha [8] [%] | pest or weed control at 250 g/ha [9] [%] | pest or weed control at 250 g/ha [10] [%] | pest or weed control at 250 g/ha (Avena fatua (AVEFA) [11]) [%] | pest or weed control at 250 g/ha (Setaria faberi (SETFA) [12]) [%]
1 | Cc1cc(C)c(C2=C(O)[C@@H]3[C@@H]4O[C@@H](C[C@H]4C)[C@@H]3C2=O)c(C)c1 [Example T65] | 80 | 100 | 90 | 100 | 90 | 100 | 100 | 100 | 100 | 100 | 90 | 90
2 | CCc1cc(C)cc(CC)c1C1=C(O)[C@@H]2[C@@H]3O[C@@H](C[C@H]3c3ccc(F)c(Cl)c3)[C@@H]2C1=O [Example T149] | 70 | 80 | 80 | 100 | 90 | 70 | 80 | 70 | 90 | 90 | 60 | 80
3 | Cc1cc(C)c(C2=C(O)[C@@H]3[C@@H]4O[C@@H](C[C@H]4c4ccc(OC(F)(F)F)cc4)[C@@H]3C2=O)c(C)c1 [Example T91] | 50 | 100 | 90 | 100 | 90 | 100 | 20 | 70 | 20 | 50 | 50 | 50
4 | Cc1cc(C)c(C2=C(O)[C@@H]3[C@@H]4O[C@@H](C[C@@H]4C)[C@@H]3C2=O)c(C)c1 [Example T97] | 80 | 100 | 90 | 100 | 90 | 100 | 100 | 100 | 100 | 100 | 90 | 90
5 | CCc1cc(C)cc(CC)c1C1=C(O)[C@@H]2[C@@H]3O[C@@H](C[C@H]3c3cc(F)ccc3C)[C@@H]2C1=O [Example T147] | 40 | 100 | 90 | 90 | 90 | 70 | 40 | 40 | 40 | 90 | 0 | 60
6 | CC[C@]12CC[C@H](O1)[C@@H]1C(=O)C(c3c(C)cc(C)cc3C)=C(O)[C@@H]12 [Example T52] | 70 | 80 | 60 | 100 | 70 | 80 | 100 | 90 | 40 | 100 | 30 | 90
7 | CCc1cc(C)cc(CC)c1C1=C(OC(=O)C(C)C)[C@H]2[C@@H](C1=O)[C@@H]1CC[C@H]2O1 [Example P26] | 90 | 100 | 100 | 100 | 100 | 100 | 100 | 100 | 100 | 100 | 90 | 100
8 | Cc1cc(C)c(C2=C(O)[C@@H]3[C@@H]4O[C@@H](C[C@H]4c4cnccn4)[C@@H]3C2=O)c(C)c1 [Example T187] | 40 | 60 | 70 | 70 | 10 | 60 | 60 | 20 | 10 | 10 | 20 | 40
9 | Cc1cc(C)c(C2=C(O)[C@@H]3[C@@H]4O[C@@H](C[C@H]4c4ccc(C(F)(F)F)nc4)[C@@H]3C2=O)c(C)c1 (racemic) [Example T128] | 80 | 100 | 80 | 100 | 90 | 100 | 90 | 100 | 70 | 100 | 70 | 100
10 | CCc1cc(C)cc(CC)c1C1=C(O)[C@H]2[C@@H](C1=O)[C@@H]1C=C[C@@]2(CO)O1 (racemic) [Example T13] | 90 | 50 | 80 | 100 | 90 | 100 | 90 | 100 | 80 | 100 | 80 | 100
11 | CCc1cc(C)cc(CC)c1C1=C(O)[C@H]2[C@@H](C1=O)[C@@H]1CC[C@@]2(COC)O1 [Example T17] | 90 | 100 | 100 | 100 | 100 | 100 | 100 | 100 | 100 | 100 | 90 | 100
12 | CCc1cc(C)cc(CC)c1C1=C(O)[C@@H]2[C@@H]3O[C@@H](C[C@H]3c3cccc(C(F)(F)F)c3)[C@@H]2C1=O [Example T154] | 60 | 70 | 90 | 100 | 60 | 70 | 80 | 70 | 70 | 100 | 50 | 70
